What was measured:
Type in all cases: cell-based
[1] = test system: LL29 cells (primary human fibroblasts derived from IPF patients) treated with TGF-β1, α-smooth muscle actin; assay: Inhibition of the fibrotic process: αSMA staining in TGF-β1 treated primary human fibroblasts from IPF patients (LL29 cells); details: Fibroblast, 96 h; for EC50: LL29 cells treated with TGF-β1 (20 ng/mL), 4 days; for inhibition at 10 µM: LL29 cells treated with TGF-β1, 4 days, read-out: percent inhibition in brackets (given for EC50 >10 μM)
IL-6 in THP-1 cells = assay: Inhibition of IL-6 in LPS-stimulated THP-1 human monocyte cells (HTRF); details: IL-6 HTRF; for EC50: 500 ng/mL LPS, 22 hours; for inhibition at 10 µM: LPS, read-out: percent inhibition in brackets (given for EC50 >10 μM)
How it was run: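 THP-1 cells, serum-reduced (1% FBS) for 24 h, were exposed to compound (1:3, 10-point series from 10 μM; 0.1% DMSO) for 2 h, then 500 ng/mL LPS for 22 h at 37° C. Secreted IL-6 measured by HTRF (665/620 ratio), normalised to DMSO; EC50 by four-parameter fit, else % inhibition at 10 μM.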

SW480 colon cancer cells = assay: Cell viability assay (CellTiter-Blue) in SW480 colon cancer cells; details: Homo sapiens, 96 h; for inhibition at 10 µM: four days, CellTiter-Blue, read-out: percent inhibition at 10 μM (given for EC50 of >10 μM); for EC50: four days incubation, CellTiter-Blue cell viability
How it was run: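 About 2×10^3 SW480 colon cancer cells per well were exposed to compound (8-point 1:3 dilutions, 10 μM to 0.004 μM) for four days at 37 °C. Viability was read by CellTiter-Blue resazurin reduction (~3 h, Ex 560/Em 590). EC50 from nonlinear regression; above 10 μM, % inhibition at 10 μM is reported.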

Row | SMILES | EC50 (IL-6 in THP-1 cells) | EC50 (SW480 colon cancer cells) | EC50 [1] | inhibition at 10 µM [1] | inhibition at 10 µM (IL-6 in THP-1 cells) | inhibition at 10 µM (SW480 colon cancer cells)
1 | CCCC(=O)Nc1cncc(-c2ccc3[nH]nc(-c4nc5c(-c6cc(F)cc(CNS(C)(=O)=O)c6)cncc5[nH]4)c3n2)c1 [Compound 465, N-(5-(3-(7-(3-Fluoro-5-(methylsulfonamidomethyl)phenyl)-3H-imidazo[4,5-c]pyridin-2-yl)-1H-pyrazolo[4,3-b]pyridin-5-yl)pyridin-3-yl)butyramide] | > 10 µM | > 10 µM | 2.35 µM | – | 28.6% | 1.8%
2 | CS(=O)(=O)NCc1cc(F)cc(-c2cncc3[nH]c(-c4n[nH]c5ccc(-c6cncc(CNCc7ccccc7)c6)nc45)nc23)c1 [Compound 472, N-(3-(2-(5-(5-((Benzylamino)methyl)pyridin-3-yl)-1H-pyrazolo[4,3-b]pyridin-3-yl)-3H-imidazo[4,5-c]pyridin-7-yl)-5-fluorobenzyl)methanesulfonamide] | > 10 µM | > 10 µM | 7.27 µM | – | 39.3% | 0%
3 | CS(=O)(=O)NCc1cc(F)cc(-c2cncc3[nH]c(-c4n[nH]c5ccc(-c6cncnc6)nc45)nc23)c1 [Compound 475, N-(3-Fluoro-5-(2-(5-(pyrimidin-5-yl)-1H-pyrazolo[4,3-b]pyridin-3-yl)-3H-imidazo[4,5-c]pyridin-7-yl)benzyl)methanesulfonamide] | > 10 µM | > 10 µM | 2.44 µM | – | 0% | 0.9%
4 | Fc1cccc(-c2cncc3[nH]c(-c4n[nH]c5ccc(C6CCNCC6)nc45)nc23)c1 [Compound 477, 3-(7-(3-Fluorophenyl)-3H-imidazo[4,5-c]pyridin-2-yl)-5-(piperidin-4-yl)-1H-pyrazolo[4,3-b]pyridine] | > 10 µM | > 10 µM | 4.56 µM | – | 13% | 1.8%
5 | Fc1cccc(-c2cncc3[nH]c(-c4n[nH]c5ccc(C6=CCNCC6)nc45)nc23)c1 [Compound 478, 3-(7-(3-Fluorophenyl)-3H-imidazo[4,5-c]pyridin-2-yl)-5-(1,2,3,6-tetrahydropyridin-4-yl)-1H-pyrazolo[4,3-b]pyridine] | > 10 µM | > 10 µM | 4.99 µM | – | 18.6% | 0%
6 | Fc1cccc(-c2cncc3[nH]c(-c4n[nH]c5ccc(-c6cn[nH]c6)nc45)nc23)c1 [Compound 479, 3-(7-(3-Fluorophenyl)-3H-imidazo[4,5-c]pyridin-2-yl)-5-(1H-pyrazol-4-yl)-1H-pyrazolo[4,3-b]pyridine] | > 10 µM | > 10 µM | > 10 µM | 36.2% | 15.7% | 5.5%
7 | Cn1cc(-c2ccc3[nH]nc(-c4nc5c(-c6cccc(F)c6)cncc5[nH]4)c3n2)cn1 [Compound 480, 3-(7-(3-Fluorophenyl)-3H-imidazo[4,5-c]pyridin-2-yl)-5-(1-methyl-1H-pyrazol-4-yl)-1H-pyrazolo[4,3-b]pyridine] | > 10 µM | > 10 µM | > 10 µM | 4.2% | 9.7% | 1.7%
8 | Cc1ncc(-c2ccc3[nH]nc(-c4nc5c(-c6cccc(F)c6)cncc5[nH]4)c3n2)n1C [Compound 481, 5-(1,2-Dimethyl-1H-imidazol-5-yl)-3-(7-(3-fluorophenyl)-3H-imidazo[4,5-c]pyridin-2-yl)-1H-pyrazolo[4,3-b]pyridine] | > 10 µM | 2.3 µM | > 10 µM | 4.5% | 48.3% | –
9 | NC1CN(c2cncc(-c3ccc4[nH]nc(-c5nc6c(-c7cccc(F)c7)cncc6[nH]5)c4n3)n2)C1 [Compound 482, 1-(6-(3-(7-(3-Fluorophenyl)-3H-imidazo[4,5-c]pyridin-2-yl)-1H-pyrazolo[4,3-b]pyridin-5-yl)pyrazin-2-yl)azetidin-3-amine] | > 10 µM | > 10 µM | > 10 µM | 16.7% | 40.8% | 3.8%
10 | Fc1cccc(-c2cncc3[nH]c(-c4n[nH]c5ccc(-c6cncc(OC7CCNCC7)c6)nc45)nc23)c1 [Compound 484, 3-(7-(3-Fluorophenyl)-3H-imidazo[4,5-c]pyridin-2-yl)-5-(5-(piperidin-4-yloxy)pyridin-3-yl)-1H-pyrazolo[4,3-b]pyridine] | > 10 µM | > 10 µM | 1.42 µM | – | 11.3% | 11.7%
11 | Oc1cncc(-c2ccc3[nH]nc(-c4nc5c(-c6cccc(F)c6)cncc5[nH]4)c3n2)c1 [Compound 489, 5-(3-(7-(3-Fluorophenyl)-3H-imidazo[4,5-c]pyridin-2-yl)-1H-pyrazolo[4,3-b]pyridin-5-yl)pyridin-3-ol] | > 10 µM | > 10 µM | 2.31 µM | – | 43.3% | 3.7%

More lines, main results first:

Row | EC50 (IL-6 in THP-1 cells) | EC50 (SW480 colon cancer cells) | SMILES | EC50 [1] | inhibition at 10 µM [1] | inhibition at 10 µM (IL-6 in THP-1 cells) | inhibition at 10 µM (SW480 colon cancer cells)
12 | > 10 µM | > 10 µM | CCC(=O)Nc1cncc(-c2ccc3[nH]nc(-c4nc5c(-c6cccs6)cncc5[nH]4)c3n2)c1 [Compound 309, N-(5-(3-(7-(Thiophen-2-yl)-3H-imidazo[4,5-c]pyridin-2-yl)-1H-pyrazolo[4,3-b]pyridin-5-yl)pyridin-3-yl)propionamide] | > 10 µM | 0% | 31.2% | 0%
13 | > 10 µM | 4.74 µM | CN(C)Cc1cncc(-c2ccc3[nH]nc(-c4nc5c(-c6cccs6)cncc5[nH]4)c3n2)c1 [Compound 321, N,N-dimethyl-1-(5-(3-(7-(thiophen-2-yl)-3H-imidazo[4,5-c]pyridin-2-yl)-1H-pyrazolo[4,3-b]pyridin-5-yl)pyridin-3-yl)methanamine] | 7.46 µM | – | 22.2% | –
14 | > 10 µM | > 10 µM | c1csc(-c2cncc3[nH]c(-c4n[nH]c5ccc(-c6ccncc6)nc45)nc23)c1 [Compound 326, 5-(Pyridin-4-yl)-3-(7-(thiophen-2-yl)-3H-imidazo[4,5-c]pyridin-2-yl)-1H-pyrazolo[4,3-b]pyridine] | > 10 µM | 26.6% | 22.3% | 0%
15 | > 10 µM | > 10 µM | O=C(Nc1cncc(-c2ccc3[nH]nc(-c4nc5c(-c6cccs6)cncc5[nH]4)c3n2)c1)C1CC1 [Compound 328, N-(5-(3-(7-(Thiophen-2-yl)-3H-imidazo[4,5-c]pyridin-2-yl)-1H-pyrazolo[4,3-b]pyridin-5-yl)pyridin-3-yl)cyclopropanecarboxamide] | > 10 µM | 0% | 40.6% | 10%
16 | > 10 µM | > 10 µM | Cc1ccc(-c2cncc3[nH]c(-c4n[nH]c5ccc(-c6cncc(NC(=O)C(C)C)c6)nc45)nc23)s1 [Compound 373, N-(5-(3-(7-(5-Methylthiophen-2-yl)-3H-imidazo[4,5-c]pyridin-2-yl)-1H-pyrazolo[4,3-b]pyridin-5-yl)pyridin-3-yl)isobutyramide] | 2.63 µM | – | 41.3% | 2.6%
17 | 0.351 µM | > 10 µM | Cc1ccc(-c2cncc3[nH]c(-c4n[nH]c5ccc(-c6cncc(NC(=O)C7CCCC7)c6)nc45)nc23)s1 [Compound 386, N-(5-(3-(7-(5-Methylthiophen-2-yl)-3H-imidazo[4,5-c]pyridin-2-yl)-1H-pyrazolo[4,3-b]pyridin-5-yl)pyridin-3-yl)cyclopentanecarboxamide] | > 10 µM | 0% | – | 0.9%
18 | 8.05 µM | > 10 µM | CCNCc1cncc(-c2ccc3[nH]nc(-c4nc5c(-c6cc(F)cc(NCCN(C)C)c6)cncc5[nH]4)c3n2)c1 [Compound 426, N^1-(3-(2-(5-(5-((Ethylamino)methyl)pyridin-3-yl)-1H-pyrazolo[4,3-b]pyridin-3-yl)-3H-imidazo[4,5-c]pyridin-7-yl)-5-fluorophenyl)-N^2,N^2-dimethylethane-1,2-diamine] | 5.09 µM | – | – | 4.4%
19 | > 10 µM | > 10 µM | CCCCC(=O)Nc1cncc(-c2ccc3[nH]nc(-c4nc5c(-c6cc(F)cc(NCCN(C)C)c6)cncc5[nH]4)c3n2)c1 [Compound 439, N-(5-(3-(7-(3-((2-(Dimethylamino)ethyl)amino)-5-fluorophenyl)-3H-imidazo[4,5-c]pyridin-2-yl)-1H-pyrazolo[4,3-b]pyridin-5-yl)pyridin-3-yl)pentanamide] | 0.248 µM | – | 31.5% | 1.3%
20 | > 10 µM | > 10 µM | CS(=O)(=O)NCc1cc(F)cc(-c2cncc3[nH]c(-c4n[nH]c5ccc(-c6cncc(NC(=O)c7ccccc7)c6)nc45)nc23)c1 [Compound 459, N-(5-(3-(7-(3-Fluoro-5-(methylsulfonamidomethyl)phenyl)-3H-imidazo[4,5-c]pyridin-2-yl)-1H-pyrazolo[4,3-b]pyridin-5-yl)pyridin-3-yl)benzamide] | > 10 µM | 0% | 0% | 1.8%

From patent US10188634B2, “3-(3H-imidazo[4,5-C]pyridin-2-yl)-1 H-pyrazolo[4,3-B]pyridines and therapeutic uses thereof” (Samumed, LLC, priority 2015, dated 2019)
